Here are results for two molecules from publication PMC9977398, “Next-generation membrane-active glycopeptide antibiotics that also inhibit bacterial cell division” (Chemical Science, 2023).

For assay [1], the system named is MRSA ATCC33591. Briefly: Neutropenic murine thigh infection model. The format is in vivo, Balb/c mice. Particulars: for bacterial load in thigh: 12 mg kg^−1 i.p. at 1 h and 13 h post-infection, 24 h, untreated 8 log CFU g^−1. As to the method:
The in vitro activity, low toxicity, and stability in plasma and liver homogenate, supported the potential of VanQAmC10 as a candidate for the treatment of bacterial infections. The efficacy of VanQAmC10 (8) against MRSA was tested in a neutropenic mouse thigh infection model. Infection was established by injecting them with 5 × 10^5 CFU of MRSA in the thigh. 1 h and 13 h post-infection, mice were treated with 12 mg kg^−1 of vancomycin and VanQAmC10 administered intraperitoneally (Fig. 6B). The mice were sacrificed 24 h post-infection. […] In the untreated group, the bacterial load increased to 8 log CFU g^−1. […] However, treatment with VanQAmC10 reduced the bacterial load to 3.3 log CFU g^−1, which is a 1.5 log CFU g^−1 lower bacterial load than observed against vancomycin. […]
bacterial concentration was adjusted to ~ […] based on OD600. The process was repeated for 27 passages. The fold of MIC increased for test compounds were plotted against […]
Activity in blood plasma and liver homogenate
To examine the susceptibility of VanQAmC10 to serum proteases, the antibacterial activities was tested in the presence of 50% of plasma and liver homogenate. Briefly, 250 μL of VanQAmC10 was added into 250 μL of fresh human plasma and incubated at 37 °C. An aliquot of the samples 3 h and 24h post-incubation was diluted in 0.9% saline and the antibacterial activity (MIC) were determined against MRSA and VRE by following the same protocol as described above for the antibacterial assay.
The toxicity of the lead compound VanQAmC10 was tested in mice through various modes of administration and reported as the LD50 (LD = lethal dose). The LD50 is the dosage that kills 50% of the test population of mice. […]
The doses for administration, were given modified OECD guidelines. LD50 was determined using Spearman-Karber method. […]
Groups of four 6 to 8 week-old Balb/c specific-pathogen-free female mice were used (weight ~22 g) for the experiment. […] The bacterial titer was expressed as Log CFU/g of thigh weight and plotted in GraphPad Prism software. […]

In assay [2] the test system is ΔamiAC MG1655 E. coli. Briefly: Microscopy of ΔamiAC MG1655 E. coli. The class given is cell-based. The note with it: sub-inhibitory concentrations: vancomycin 3 μM, VanQAmC10 2 μM (Fig. 5D). As to the method: The bacterial amidases help cleave the septum in the final stage of cell division to produce daughter cells.[39] In the absence of amidases, chains of unseparated cells are formed (Fig. 5D). These retain distinct cytoplasmic compartments but share an outer membrane.[39] These cells are known to be hypersensitive to antibiotics and detergents. However, ΔamiAC mutations are resistant to killing by cephalexin.[38] The MIC of VanQAmC10 against the ΔamiAC mutant was reduced to 4 μM, while that of vancomycin was >10 μM. […] This is indicative of impaired cell division. Cell debris due to lysis after compound treatment are also visible. […]
from 10 μg/mL. The bacteria with compounds and untreated control were incubated for 18 h at 37 ̊C under shaking and OD600 was measured.
Microscopy of ΔamiAC MG1655 E. coli
ΔamiAC MG1655 was cultured overnight in LB media at 37 ̊C. […]
MRSA ATCC 33591 was grown to mid-log phase at 37 °C. […] The viable bacteria were then counted after 48 h incubation at 37 °C. […]
Antagonization of antibacterial activity of AAV-qC10 was determined by addition of 500 μM N,N՛-diacetyl–L-Lys–D-Ala–D-Ala or 100 μg/mL of lipoteichoic acid to serial dilutions of the test compound. The MIC was then determined against MRSA by measuring the OD600 18-24 […]
Vancomycin was chosen as control antibiotic for MRSA. The initial MIC values of VanQAmC10, vancomycin were determined against the respective bacteria. […]

For the molecule `CCCCCCCCCCNC(=O)C[N+](C)(C)CCCNC(=O)C1NC(=O)C2NC(=O)C(NC(=O)C3NC(=O)C(CC(N)=O)NC(=O)C(NC(=O)C(CC(C)C)NC)C(O)c4ccc(c(Cl)c4)Oc4cc3cc(c4OC3OC(CO)C(O)C(O)C3OC3CC(C)(N)C(O)C(C)O3)Oc3ccc(cc3Cl)C2O)c2ccc(O)c(c2)-c2c(O)cc(O)cc21` (centres unmarked) [VanQAmC10 (8)], the “bacterial load in thigh” value in assay [1] is reported as 3.3 log CFU g^−1. Also, in assay [1] (12 mg kg^−1 i.p. twice), the “lower bacterial load than observed against vancomycin” value stood at 1.5 log CFU g^−1. Moreover, the “morphology of ΔamiAC mutant” value in assay [2] is “larger cell phenotypes of variable sizes”.

For the molecule `CN[C@H](CC(C)C)C(=O)N[C@H]1C(=O)N[C@@H](CC(N)=O)C(=O)N[C@H]2C(=O)N[C@H]3C(=O)N[C@H](C(=O)N[C@H](C(=O)O)c4cc(O)cc(O)c4-c4cc3ccc4O)[C@H](O)c3ccc(c(Cl)c3)Oc3cc2cc(c3O[C@@H]2O[C@H](CO)[C@@H](O)[C@H](O)[C@H]2O[C@H]2C[C@](C)(N)[C@H](O)[C@H](C)O2)Oc2ccc(cc2Cl)[C@H]1O` [Vancomycin, reference compound], in assay [1], the “bacterial load in thigh” value amounted to 4.8 log CFU g^−1. Moreover, the “morphology of ΔamiAC mutant” value in assay [2] was “few cells appear larger and bulky while most appear similar to the untreated bacteria”.
